Test system: Mf
Experiment: Compatibility of Mf with agrochemicals (CFU in liquid medium)
Format: cell-based, Metschnikowia fructicola
Conditions: TBZ 0.02%; Teldor 0.015%; Mitos 0.025%; Rovral 0.02%; Switch 0.01%; Imazalil 0.005%; 0-48 h, FIG. 8
Method: In order to establish that Mf is suitable for combination with a variety of commonly employed chemical pesticides, ten percent strength of liquid medium (NYDB) with various concentrations of common agrochemicals added was inoculated with a cell suspension of Mf (25 ml of 10^9 cell/ml) and incubated on a rotary shaker at room temperature. The following commercially available agrochemicals were employed: TBZ (0.02%); Teldor (0.015%); Mitos (0.025%); Rovral (0.02%); Switch (0.01%); and Imazalil (0.005%). Samples were aseptically withdrawn from the at 0 time, 24 h and 48 h of incubation. Samples were serially diluted and aliquots of 30 μl of the dilutions were plated on PDA. Plates were incubated at 25° C. for 3–4 days and colony forming units (CFU) were counted.

C=CCOC(Cn1ccnc1)c1ccc(Cl)cc1Cl (stereo not shown) [Imazalil, 1-(2-2,4-Dichlorophenyl)-2(2-propenyloxy-ethyl)-1Himidazol]
Effect of agrochemical on growth (CFU) of Mf: slowed, but did not prevent, its growth

Source: patent publication US6994849B2, “Yeast Metschnikowia fructicola NRRL Y-30752 for inhibiting deleterious microorganisms on plants” (State of Israel, Ministry of Agriculture, Agricultural …, priority 2001, dated 2006)
